The NIST ThermoML archive (doi:10.1021/je900437b)
± gives the expanded uncertainty stated by the source.

Key:
[1] = 101 kPa, Liquid; for speed of sound: Sing-around technique in a fixed-path interferometer; for mass density: Vibrating tube method
[2] = xn = mol fraction of the nth substance listed; conditions: 101 kPa, Liquid, x1 = 1; for speed of sound: Sing-around technique in a fixed-path interferometer; for mass density: Vibrating tube method

SMILES | speed of sound ([1]; 293.15 K) [m/s] | mass density ([1]; 293.15 K) [kg/m3] | speed of sound ([1]; 298.15 K) [m/s] | mass density ([1]; 298.15 K) [kg/m3] | speed of sound ([1]; 303.15 K) [m/s] | mass density ([1]; 303.15 K) [kg/m3] | speed of sound ([1]; 308.15 K) [m/s] | mass density ([1]; 308.15 K) [kg/m3] | speed of sound ([1]; 313.15 K) [m/s] | mass density ([1]; 313.15 K) [kg/m3] | speed of sound ([1]; 318.15 K) [m/s] | mass density ([1]; 318.15 K) [kg/m3] | speed of sound ([1]; 323.15 K) [m/s] | mass density ([1]; 323.15 K) [kg/m3] | speed of sound ([2]; 298.15 K) [m/s] | mass density ([2]; 298.15 K) [kg/m3] | speed of sound ([2]; 303.15 K) [m/s] | mass density ([2]; 303.15 K) [kg/m3] | speed of sound ([2]; 308.15 K) [m/s] | mass density ([2]; 308.15 K) [kg/m3] | also measured
CC(C)(N)CO [2-amino-2-methylpropan-1-ol] | 1501.4 ± 5 | 936.751 ± 4.8 | 1483.4 ± 5 | 932.596 ± 4.7 | 1461.2 ± 5 | 928.395 ± 4.7 | 1442.4 ± 5 | 924.174 ± 4.6 | 1423.8 ± 5 | 919.945 ± 4.6 | 1405.3 ± 5 | 915.702 ± 4.6 | 1386.9 ± 5 | 911.431 ± 4.5 | – | – | – | – | – | – | –
NCCO [2-aminoethan-1-ol] | 1735.5 ± 1.3 | 1015.98 ± 0.24 | 1719.2 ± 1.3 | 1012.02 ± 0.24 | 1703.1 ± 1.3 | 1008 ± 0.24 | 1686.8 ± 1.3 | 1004.02 ± 0.23 | 1670.5 ± 1.3 | 1000.04 ± 0.23 | 1654.2 ± 1.3 | 996.029 ± 0.23 | 1637.9 ± 1.3 | 992.014 ± 0.23 | – | – | – | – | – | – | –
NCCO [2-aminoethan-1-ol] + CC(C)(N)CO | – | – | – | – | – | – | – | – | – | – | – | – | – | – | 1719.2 ± 1.3 | 1012.02 ± 0.24 | 1703.1 ± 1.3 | 1008 ± 0.24 | 1686.8 ± 1.3 | 1004.02 ± 0.23 | speed of sound ([2]; 293.15 K): 1735.5 ± 1.3 m/s; mass density ([2]; 293.15 K): 1015.98 ± 0.24 kg/m3; speed of sound ([2]; 313.15 K): 1670.5 ± 1.3 m/s; mass density ([2]; 313.15 K): 1000.04 ± 0.23 kg/m3; speed of sound ([2]; 318.15 K): 1654.2 ± 1.3 m/s; mass density ([2]; 318.15 K): 996.029 ± 0.23 kg/m3; speed of sound ([2]; 323.15 K): 1637.9 ± 1.3 m/s; mass density ([2]; 323.15 K): 992.014 ± 0.23 kg/m3
NCCO [2-aminoethan-1-ol] + CN(CCO)CCO | – | – | – | – | – | – | – | – | – | – | – | – | – | – | 1719.2 ± 1.3 | 1012.02 ± 0.24 | 1703.1 ± 1.3 | 1008 ± 0.24 | 1686.8 ± 1.3 | 1004.02 ± 0.23 | speed of sound ([2]; 293.15 K): 1735.5 ± 1.3 m/s; mass density ([2]; 293.15 K): 1015.98 ± 0.24 kg/m3; speed of sound ([2]; 313.15 K): 1670.5 ± 1.3 m/s; mass density ([2]; 313.15 K): 1000.04 ± 0.23 kg/m3; speed of sound ([2]; 318.15 K): 1654.2 ± 1.3 m/s; mass density ([2]; 318.15 K): 996.029 ± 0.23 kg/m3; speed of sound ([2]; 323.15 K): 1637.9 ± 1.3 m/s; mass density ([2]; 323.15 K): 992.014 ± 0.23 kg/m3
NCCO [2-aminoethan-1-ol] + OCCN(CCO)CCO | – | – | – | – | – | – | – | – | – | – | – | – | – | – | 1719.2 ± 1.3 | 1012.02 ± 0.24 | 1703.1 ± 1.3 | 1008 ± 0.24 | 1686.8 ± 1.3 | 1004.02 ± 0.23 | speed of sound ([2]; 313.15 K): 1670.5 ± 1.3 m/s; mass density ([2]; 313.15 K): 1000.04 ± 0.23 kg/m3; speed of sound ([2]; 318.15 K): 1654.2 ± 1.3 m/s; mass density ([2]; 318.15 K): 996.029 ± 0.23 kg/m3; speed of sound ([2]; 323.15 K): 1637.9 ± 1.3 m/s; mass density ([2]; 323.15 K): 992.014 ± 0.23 kg/m3
CN(CCO)CCO [N-methyldiethanolamine] | 1585.5 ± 2.1 | 1042.2 ± 0.92 | 1570.1 ± 2.1 | 1038.29 ± 0.92 | 1554.8 ± 2.1 | 1034.36 ± 0.91 | 1539.5 ± 2.1 | 1030.43 ± 0.9 | 1524.2 ± 2.1 | 1026.48 ± 0.89 | 1508.8 ± 2.1 | 1022.53 ± 0.88 | 1493.4 ± 2.1 | 1018.58 ± 0.88 | – | – | – | – | – | – | –
OCCN(CCO)CCO [triethanolamine] | – | – | 1610.5 ± 1.3 | 1120.82 ± 0.33 | 1600.5 ± 1.3 | 1118.06 ± 0.32 | 1595.5 ± 1.3 | 1115.26 ± 0.32 | 1587 ± 1.3 | 1112.4 ± 0.32 | 1578.8 ± 1.3 | 1109.6 ± 0.32 | 1570.6 ± 1.3 | 1106.78 ± 0.32 | – | – | – | – | – | – | –
